Assay results reported in US20230085307A1, “PYRIDAZINONE COMPOUND AND HERBICIDE” (NISSAN CHEMICAL CORPORATION, priority 2019, published 2023).

Columns and labels:
wild oat [1] = assay: Test Example 4: herbicidal effect by soil treatment (Table 19, symbol I); type: in vivo, wild oat (Avena fatua)
Outline: (§1)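 In this soil treatment, the formulated compound reached the seeds only through the soil: seeds were buried about 1.5 cm deep in sterilized diluvial soil, then the diluted emulsion was sprayed over the surface. After three weeks at 25° C. to 30° C. in a greenhouse, effects were graded on criteria from an earlier test.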

Italian ryegrass [2] = assay: Test Example 5: herbicidal effect by foliage application, plastic box (Table 20, symbol K); type: in vivo, Italian ryegrass (Lolium multiflorum); settings: foliage application
Outline: (§2)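 Plants were sown into sterilized diluvial soil under about 1.5 cm cover and kept in a greenhouse at 25° C. to 30° C. Fourteen days on, foliage received an even spray of the diluted emulsion. Herbicidal or crop effect was judged three weeks afterwards.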

Japanese bulrush = assay: Test Example 1: herbicidal activity, application before weed generation under submerged conditions (Table 16, symbol B); type: in vivo, Japanese bulrush (Schoenoplectus juncoides); settings: 320 g/ha applied herbicide
Outline: (§3)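 Submerged Wagner pots (alluvial soil, 4 cm water) sown with weed seeds and planted with 2.5-leaf rice seedlings; emulsifiable concentrate diluted in water applied to water surface on sowing day. Held in greenhouse at 25-30 °C; injury scored 0-5 by herbicidal rate after three weeks.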

persian speedwell [3] = assay: Test Example 4: herbicidal effect by soil treatment (Table 19, symbol R); type: in vivo, Persian speedwell (Veronica persica)
Outline: as §1

southern crabgrass [4] = assay: Test Example 5: herbicidal effect by foliage application, plastic box (Table 20, symbol F); type: in vivo, southern crabgrass (Digitaria ciliaris); settings: foliage application
Outline: as §2

oval-leafed pondweed = assay: Test Example 1: herbicidal activity, application before weed generation under submerged conditions (Table 16, symbol C); type: in vivo, oval-leafed pondweed (Monochoria vaginalis); settings: 320 g/ha applied herbicide
Outline: as §3

chickweed [5] = assay: Test Example 4: herbicidal effect by soil treatment (Table 19, symbol P); type: in vivo, common chickweed (Stellaria media)
Outline: as §1

barnyard grass [6] = assay: Test Example 3: herbicidal effect by foliage application, Wagner pot (Table 18, symbol H); type: in vivo, barnyard grass (Echinochloa crus-galli); settings: 320 g/ha
Outline: (§4)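 Plants were sown in alluvial soil held under 0.1–0.5 cm standing water and grown 14 days in a greenhouse at 25–30 °C. An emulsifiable formulation, water-diluted to the set dose, was then sprayed onto the foliage, and effects were scored three weeks later using previously defined criteria.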

chickweed [7] = assay: Test Example 5: herbicidal effect by foliage application, plastic box (Table 20, symbol P); type: in vivo, common chickweed (Stellaria media); settings: foliage application
Outline: as §2

lambsquarters [8] = assay: Test Example 5: herbicidal effect by foliage application, plastic box (Table 20, symbol O); type: in vivo, lambsquarters (Chenopodium album); settings: foliage application
Outline: as §2

lambsquarters [9] = assay: Test Example 4: herbicidal effect by soil treatment (Table 19, symbol O); type: in vivo, lambsquarters (Chenopodium album)
Outline: as §1

southern crabgrass [10] = assay: Test Example 4: herbicidal effect by soil treatment (Table 19, symbol F); type: in vivo, southern crabgrass (Digitaria ciliaris)
Outline: as §1

blackgrass [11] = assay: Test Example 4: herbicidal effect by soil treatment (Table 19, symbol J); type: in vivo, blackgrass (Alopecurus myosuroides)
Outline: as §1

windgrass [12] = assay: Test Example 5: herbicidal effect by foliage application, plastic box (Table 20, symbol L); type: in vivo, windgrass (Apera spica-venti); settings: foliage application
Outline: as §2

Italian ryegrass [13] = assay: Test Example 4: herbicidal effect by soil treatment (Table 19, symbol K); type: in vivo, Italian ryegrass (Lolium multiflorum)
Outline: as §1

velvetleaf [14] = assay: Test Example 4: herbicidal effect by soil treatment (Table 19, symbol M); type: in vivo, velvetleaf (Abutilon theophrasti)
Outline: as §1

late watergrass = assay: Test Example 1: herbicidal activity, application before weed generation under submerged conditions (Table 16, symbol A); type: in vivo, late watergrass (Echinochloa oryzicola); settings: 320 g/ha applied herbicide
Outline: as §3

redroot pigweed [15] = assay: Test Example 5: herbicidal effect by foliage application, plastic box (Table 20, symbol N); type: in vivo, redroot pigweed (Amaranthus retroflexus); settings: foliage application
Outline: as §2

wild oat [16] = assay: Test Example 5: herbicidal effect by foliage application, plastic box (Table 20, symbol I); type: in vivo, wild oat (Avena fatua); settings: foliage application
Outline: as §2

blackgrass [17] = assay: Test Example 5: herbicidal effect by foliage application, plastic box (Table 20, symbol J); type: in vivo, blackgrass (Alopecurus myosuroides); settings: foliage application
Outline: as §2

barnyard grass [18] = assay: Test Example 4: herbicidal effect by soil treatment (Table 19, symbol H); type: in vivo, barnyard grass (Echinochloa crus-galli)
Outline: as §1

persian speedwell [19] = assay: Test Example 5: herbicidal effect by foliage application, plastic box (Table 20, symbol R); type: in vivo, Persian speedwell (Veronica persica); settings: foliage application
Outline: as §2

velvetleaf [20] = assay: Test Example 5: herbicidal effect by foliage application, plastic box (Table 20, symbol M); type: in vivo, velvetleaf (Abutilon theophrasti); settings: foliage application
Outline: as §2

redroot pigweed [21] = assay: Test Example 4: herbicidal effect by soil treatment (Table 19, symbol N); type: in vivo, redroot pigweed (Amaranthus retroflexus)
Outline: as §1

barnyard grass [22] = assay: Test Example 5: herbicidal effect by foliage application, plastic box (Table 20, symbol H); type: in vivo, barnyard grass (Echinochloa crus-galli); settings: foliage application
Outline: as §2

windgrass [23] = assay: Test Example 4: herbicidal effect by soil treatment (Table 19, symbol L); type: in vivo, windgrass (Apera spica-venti)
Outline: as §1

rice flat sedge = assay: Test Example 3: herbicidal effect by foliage application, Wagner pot (Table 18, symbol E); type: in vivo, rice flat sedge (Cyperus iria); settings: 320 g/ha
Outline: as §4

Chinese sprangletop = assay: Test Example 3: herbicidal effect by foliage application, Wagner pot (Table 18, symbol D); type: in vivo, chinese sprangletop (Leptochloa chinensis); settings: 320 g/ha
Outline: as §4

green foxtail [24] = assay: Test Example 4: herbicidal effect by soil treatment (Table 19, symbol G); type: in vivo, green foxtail (Setaria viridis)
Outline: as §1

green foxtail [25] = assay: Test Example 5: herbicidal effect by foliage application, plastic box (Table 20, symbol G); type: in vivo, green foxtail (Setaria viridis); settings: foliage application
Outline: as §2

[26] = AAH 320 g/ha, three weeks after application
[27] = 320 g/ha, evaluated three weeks after application

Structure (SMILES): COCOc1c(C)nn(C)c(=O)c1-c1c(-c2ccc(OCc3ccccc3)cc2)sc2ccccc12 [1-135]
- I: wild oat, herbicidal effect rating (wild oat [1]; AAH 320 g/ha): 0 (Herbicidal rate of 5% or less (almost no effect))
- K: Italian ryegrass, herbicidal effect (Italian ryegrass [2]; [26]): 0 (Herbicidal rate of 5% or less (almost no effect))
- Herbicidal effect on B: Japanese bulrush (grade 0-5) (Japanese bulrush): 3 (Herbicidal rate of 40% or more and less than 70%)
- R: persian speedwell, herbicidal effect rating (persian speedwell [3]; AAH 320 g/ha): 3 (Herbicidal rate of 40% or more and less than 70%)
- F: southern crabgrass, herbicidal effect (southern crabgrass [4]; [26]): 0 (Herbicidal rate of 5% or less (almost no effect))
- Herbicidal effect on C: oval-leafed pondweed (grade 0-5) (oval-leafed pondweed): 3 (Herbicidal rate of 40% or more and less than 70%)
- P: chickweed, herbicidal effect rating (chickweed [5]; AAH 320 g/ha): 0 (Herbicidal rate of 5% or less (almost no effect))
- herbicidal effect on H (barnyard grass), rating 0-5 (barnyard grass [6]): 2 (Herbicidal rate of 20% or more and less than 40%)
- P: chickweed, herbicidal effect (chickweed [7]; [26]): 5 (Herbicidal rate of 90% or more (almost completely withered))
- O: lambsquarters, herbicidal effect (lambsquarters [8]; [26]): 5 (Herbicidal rate of 90% or more (almost completely withered))
- O: lambsquarters, herbicidal effect rating (lambsquarters [9]; AAH 320 g/ha): 0 (Herbicidal rate of 5% or less (almost no effect))
- F: southern crabgrass, herbicidal effect rating (southern crabgrass [10]; AAH 320 g/ha): 2 (Herbicidal rate of 20% or more and less than 40%)
- J: blackgrass, herbicidal effect rating (blackgrass [11]; AAH 320 g/ha): 0 (Herbicidal rate of 5% or less (almost no effect))
- L: windgrass, herbicidal effect (windgrass [12]; [26]): 0 (Herbicidal rate of 5% or less (almost no effect))
- K: Italian ryegrass, herbicidal effect rating (Italian ryegrass [13]; AAH 320 g/ha): 0 (Herbicidal rate of 5% or less (almost no effect))
- M: velvetleaf, herbicidal effect rating (velvetleaf [14]; AAH 320 g/ha): 0 (Herbicidal rate of 5% or less (almost no effect))
- Herbicidal effect on A: late watergrass (grade 0-5) (late watergrass): 4 (Herbicidal rate of 70% or more and less than 90%)
- N: redroot pigweed, herbicidal effect (redroot pigweed [15]; [26]): 5 (Herbicidal rate of 90% or more (almost completely withered))
- I: wild oat, herbicidal effect (wild oat [16]; [26]): 0 (Herbicidal rate of 5% or less (almost no effect))
- J: blackgrass, herbicidal effect (blackgrass [17]; [26]): 0 (Herbicidal rate of 5% or less (almost no effect))
- H: barnyard grass, herbicidal effect rating (barnyard grass [18]; AAH 320 g/ha): 0 (Herbicidal rate of 5% or less (almost no effect))
- R: persian speedwell, herbicidal effect (persian speedwell [19]; [26]): 4 (Herbicidal rate of 70% or more and less than 90%)
- M: velvetleaf, herbicidal effect (velvetleaf [20]; [26]): 2 (Herbicidal rate of 20% or more and less than 40%)
- N: redroot pigweed, herbicidal effect rating (redroot pigweed [21]; AAH 320 g/ha): 0 (Herbicidal rate of 5% or less (almost no effect))
- H: barnyard grass, herbicidal effect (barnyard grass [22]; [26]): 1 (Herbicidal rate of 5% or more and less than 20%)
- L: windgrass, herbicidal effect rating (windgrass [23]; AAH 320 g/ha): 0 (Herbicidal rate of 5% or less (almost no effect))
- herbicidal effect on E (rice flat sedge), rating 0-5 (rice flat sedge): 3 (Herbicidal rate of 40% or more and less than 70%)
- herbicidal effect on D (Chinese sprangletop), rating 0-5 (Chinese sprangletop): 3 (Herbicidal rate of 40% or more and less than 70%)
- G: green foxtail, herbicidal effect rating (green foxtail [24]; AAH 320 g/ha): 0 (Herbicidal rate of 5% or less (almost no effect))
- G: green foxtail, herbicidal effect (green foxtail [25]; [26]): 4 (Herbicidal rate of 70% or more and less than 90%)

Structure (SMILES): CSCCOc1ccc(-c2sc3ccc(F)cc3c2-c2c(O)c(C)nn(C)c2=O)cc1 [2-058]
- herbicidal effect rating, I: wild oat (wild oat [1]; 320 g/ha): 0 (Herbicidal rate of 5% or less (almost no effect))
- herbicidal effect on K: Italian ryegrass (Italian ryegrass [2]; [27]): 5 (Herbicidal rate of 90% or more (almost completely withered))
- Herbicidal effect on B: Japanese bulrush (grade 0-5) (Japanese bulrush): 2 (Herbicidal rate of 20% or more and less than 40%)
- herbicidal effect rating, R: persian speedwell (persian speedwell [3]; 320 g/ha): 4 (Herbicidal rate of 70% or more and less than 90%)
- herbicidal effect on F: southern crabgrass (southern crabgrass [4]; [27]): 5 (Herbicidal rate of 90% or more (almost completely withered))
- Herbicidal effect on C: oval-leafed pondweed (grade 0-5) (oval-leafed pondweed): 0 (Herbicidal rate of 5% or less (almost no effect))
- herbicidal effect rating, P: chickweed (chickweed [5]; 320 g/ha): 3 (Herbicidal rate of 40% or more and less than 70%)
- herbicidal effect on H (barnyard grass), rating 0-5 (barnyard grass [6]): 5 (Herbicidal rate of 90% or more (almost completely withered))
- herbicidal effect on P: chickweed (chickweed [7]; [27]): 5 (Herbicidal rate of 90% or more (almost completely withered))
- herbicidal effect on O: lambsquarters (lambsquarters [8]; [27]): 5 (Herbicidal rate of 90% or more (almost completely withered))
- herbicidal effect rating, O: lambsquarters (lambsquarters [9]; 320 g/ha): 5 (Herbicidal rate of 90% or more (almost completely withered))
- herbicidal effect rating, F: southern crabgrass (southern crabgrass [10]; 320 g/ha): 5 (Herbicidal rate of 90% or more (almost completely withered))
- herbicidal effect rating, J: blackgrass (blackgrass [11]; 320 g/ha): 5 (Herbicidal rate of 90% or more (almost completely withered))
- herbicidal effect on L: windgrass (windgrass [12]; [27]): 5 (Herbicidal rate of 90% or more (almost completely withered))
- herbicidal effect rating, K: Italian ryegrass (Italian ryegrass [13]; 320 g/ha): 4 (Herbicidal rate of 70% or more and less than 90%)
- herbicidal effect rating, M: velvetleaf (velvetleaf [14]; 320 g/ha): 3 (Herbicidal rate of 40% or more and less than 70%)
- Herbicidal effect on A: late watergrass (grade 0-5) (late watergrass): 0 (Herbicidal rate of 5% or less (almost no effect))
- herbicidal effect on N: redroot pigweed (redroot pigweed [15]; [27]): 5 (Herbicidal rate of 90% or more (almost completely withered))
- herbicidal effect on I: wild oat (wild oat [16]; [27]): 5 (Herbicidal rate of 90% or more (almost completely withered))
- herbicidal effect on J: blackgrass (blackgrass [17]; [27]): 5 (Herbicidal rate of 90% or more (almost completely withered))
- herbicidal effect rating, H: barnyard grass (barnyard grass [18]; 320 g/ha): 1 (Herbicidal rate of 5% or more and less than 20%)
- herbicidal effect on R: persian speedwell (persian speedwell [19]; [27]): 5 (Herbicidal rate of 90% or more (almost completely withered))
- herbicidal effect on M: velvetleaf (velvetleaf [20]; [27]): 5 (Herbicidal rate of 90% or more (almost completely withered))
- herbicidal effect rating, N: redroot pigweed (redroot pigweed [21]; 320 g/ha): 5 (Herbicidal rate of 90% or more (almost completely withered))
- herbicidal effect on H: barnyard grass (barnyard grass [22]; [27]): 5 (Herbicidal rate of 90% or more (almost completely withered))
- herbicidal effect rating, L: windgrass (windgrass [23]; 320 g/ha): 4 (Herbicidal rate of 70% or more and less than 90%)
- herbicidal effect on E (rice flat sedge), rating 0-5 (rice flat sedge): 5 (Herbicidal rate of 90% or more (almost completely withered))
- herbicidal effect on D (Chinese sprangletop), rating 0-5 (Chinese sprangletop): 5 (Herbicidal rate of 90% or more (almost completely withered))
- herbicidal effect rating, G: green foxtail (green foxtail [24]; 320 g/ha): 4 (Herbicidal rate of 70% or more and less than 90%)
- herbicidal effect on G: green foxtail (green foxtail [25]; [27]): 5 (Herbicidal rate of 90% or more (almost completely withered))
